The text below walks through data of article PMC9629493, “Crystal structure of DNA polymerase I from Thermus phage G20c” (Acta Crystallographica. Section D, Structural Biology, 2022).

The structures appear in SMILES notation.

The target in test [1] is T1, ExnV1 (uncultured virus, UniProt Z9YD31SC24).
T1 construct: full 314-residue 3'-5' exonuclease domain protein, N-terminal His6 tag (pJOE5751.1, pLEI447.1), E. coli JM109, about 36 kDa, no oligomerization
Put plainly: differential scanning fluorimetry. Type of test: binding. The settings on record: with MgCl2. (In general: DSF heats the sample and reads unfolding from a dye or from intrinsic fluorescence.)

The target of test [2] is T1, ExnV1. Put plainly: X-ray crystal structure, […] A. The class given is binding. Conditions: TMP and MgCl2 added before concentration; 5 mM TMP, 10 mM MgCl2 in cryo-solution; 100 mM Bicine pH 9.3; exonuclease active site.

Take `Cc1cn([C@H]2C[C@H](O)[C@@H](COP(=O)(O)O)O2)c(=O)[nH]c1=O` [thymidine monophosphate]: on ExnV1 [1], the thermal stabilization result is “Differential scanning fluorimetry showed that ExnV1 was stabilized by thymidine monophosphate (TMP) and MgCl2”. Besides, at ExnV1 [2], the “X-ray crystal structure, 2.19 A” value is “the second O atom of the phosphate group of the substrate nucleotide”.
